The test system of experiment [1] is lung A549. Nature of the experiment: Sulforhodamine B (SRB) assay, lung A549. Type of experiment: cell-based, human. Here is the method: Human cancer cells were purchased from the American Type Culture Collection (Manassas, Va., USA).
Cells were seeded in 96-well plates in medium with 5% fetal bovine serum. […] Unbound sulforhodamine B was washed out by 1% acetic acid and sulforhodamine B-bound cells were solubilized with 10 mmol/L Trizma base. […] Using the following absorbance measurements, such as time zero (T0), control growth (C), and cell growth in the presence of the drug (Tx), the percentage growth was calculated at each of the compound concentrations levels. Percentage growth inhibition was calculated as […].
A general note: Sulforhodamine B stains cellular protein and so reports cell mass.

Experiment [2] deals with prostate PC3. Nature of the experiment: Sulforhodamine B (SRB) assay, prostate PC3. The settings on record: Homo sapiens, Table 1, 48 h. The experiment is classed as cell-based. Here is the method:
(§1) Human cancer cells were purchased from the American Type Culture Collection (Manassas, Va., USA). These cell lines were cultured in RPMI 1640 medium or DMEM supplemented with 10% FBS (v/v) and pencillin (100 U/mL)/streptomycin (100 ug/mL)/amphotericin B (0.25 ug/mL). Cultures were maintained at 37° C. in a humidified atmosphere of 5% CO2/95% air.
(§2) Cells were seeded in 96-well plates in medium with 5% fetal bovine serum. After 24 h, cells were fixed with 10% trichloroacetic acid to represent cell population at the time of drug addition (T0). After additional incubation of DMSO or drugs for 48 h, cells were fixed with 10% trichloroacetic acid and sulforhodamine B at 0.4% (w/v) in 1% acetic acid was added to stain cells. Unbound sulforhodamine B was washed out by 1% acetic acid and sulforhodamine B-bound cells were solubilized with 10 mmol/L Trizma base. The absorbance was read at a wavelength of 515 nm. Using the following absorbance measurements, such as time zero (T0), control growth (C), and cell growth in the presence of the drug (Tx), the percentage growth was calculated at each of the compound concentrations levels. Percentage growth inhibition was calculated as […].

The test system of experiment [3] is colorectal HCT116. Nature of the experiment: Sulforhodamine B (SRB) assay, colorectal HCT116. The conditions noted are these: Homo sapiens, HCT-116, SRB. The experiment is classed as cell-based. Here is the method:
as §1, §2

Where [4] appears, read: Homo sapiens, A549, 48 h, read-out: GI50 Lung A549.
Setting [5] is: Homo sapiens, A549, Table 1, SRB, 48 h, read-out: GI50 Lung A549.
The mark [6] stands for this setting: Table 1, 48 h, read-out: GI50 Colorectal HCT116.

Read-outs that look alike come from different tables or passages of the source.

As to `CC(C)c1cc(C(=O)Nc2ccc3ccn(C)c3c2)c(O)cc1O` [Compound 21b, 2,4-dihydroxy-5-isopropyl-N-(1-methyl-1H-indol-6-yl)benzamide], in experiment [1] (setting [4]), the GI50 was over 10000 nM.
For `CC(C)c1cc(C(=O)Nc2cccc3cccnc23)c(O)cc1O` [Compound 31a, 2,4-dihydroxy-5-isopropyl-N-(quinolin-8-yl)benzamide], the GI50 in experiment [1] (setting [5]) and in experiment [2] was over 10000 nM throughout.
Consider `CCN(C(=O)c1cc(C(C)C)c(O)cc1O)c1cnc2c(ccn2C)c1` [Compound 24d, N-ethyl-2,4-dihydroxy-5-isopropyl-N-(1-methyl-1H-pyrrolo[2,3-b]pyridin-5-yl)benzamide], for which the GI50 was 230 ± 30 nM in experiment [1] (setting [5]) and 440 ± 190 nM in experiment [3] (setting [6]).
For the compound `C=CCNC1=C2C[C@@H](C)C[C@H](OC)[C@H](O)[C@@H](C)/C=C(\C)[C@H](OC(N)=O)[C@@H](OC)/C=C\C=C(/C)C(=O)NC(=CC1=O)C2=O` [Compound 17-AAG, 17-allylamino-17-desmethoxygeldanamycin, reference compound], the GI50 worked out at 80 ± 10 nM in experiment [1] (Homo sapiens, A549, Table 2, SRB, read-out: A549 GI50) and 340 ± 60 nM in experiment [3] (Table 2, read-out: HCT116 GI50).
Take `CC(C)c1cc(C(=O)N(C)c2ccc3c(cnn3C)c2)c(O)cc1O` [Compound 25b, 2,4-dihydroxy-5-isopropyl-N-methyl-N-(1-methyl-1H-indazol-5-yl)benzamide]: the GI50 in experiment [1] (setting [5]) is 110 ± 10 nM; in experiment [2], 100 ± 10 nM.
As to `CCN(C(=O)c1cc(C(C)C)c(O)cc1O)c1ccc2ncccc2c1` [Compound 30c, N-ethyl-2,4-dihydroxy-5-isopropyl-N-(quinolin-6-yl)benzamide], the GI50 in experiment [1] (setting [5]) is 510 ± 90 nM; in experiment [2] it was 460 ± 130 nM.
With `CC(C)c1cc(C(=O)N(C)c2ccc3ncccc3c2)c(O)cc1O` [Compound 30b, 2,4-dihydroxy-5-isopropyl-N-methyl-N-(quinolin-6-yl)benzamide], the GI50 in experiment [1] (setting [5]) and in experiment [2] was over 10000 nM throughout.
For the compound `CCCN(C(=O)c1cc(C(C)C)c(O)cc1O)c1cnc2c(cnn2C)c1` [Compound 26e, 2,4-dihydroxy-5-isopropyl-N-(1-methyl-1H-pyrazolo[3,4-b]pyridin-5-yl)-N-propylbenzamide], the concentration for 50% growth inhibition (GI50) in experiment [1] (setting [5]) came to 4210 ± 220 nM; in experiment [3] (setting [6]), 8290 ± 290 nM.
On to `CCCN(C(=O)c1cc(C(C)C)c(O)cc1O)c1ccc2ccn(C)c2c1` [Compound 21e, 2,4-dihydroxy-5-isopropyl-N-(1-methyl-1H-indol-6-yl)-N-propylbenzamide], for which, in experiment [1] (setting [4]), the GI50 came out at 1620 ± 120 nM.
As for `CC(C)c1cc(C(=O)Nc2ccc3ncccc3c2)c(O)cc1O` [Compound 30a, 2,4-dihydroxy-5-isopropyl-N-(quinolin-6-yl)benzamide], the GI50 in experiment [1] (setting [5]) and in experiment [2] was over 10000 nM each time.
For `CC(C)c1cc(C(=O)N(C)c2cccc3ccn(C)c23)c(O)cc1O` [Compound 22b, 2,4-dihydroxy-5-isopropyl-N-methyl-N-(1-methyl-1H-indol-7-yl)benzamide], the GI50 in experiment [1] (setting [4]) was over 10000 nM.
Turning to `CCCN(C(=O)c1cc(C(C)C)c(O)cc1O)c1cccc2ccn(C)c12` [Compound 22d, 2,4-dihydroxy-5-isopropyl-N-(1-methyl-1H-indol-7-yl)-N-propylbenzamide], in experiment [1] (setting [4]), the GI50 was over 10000 nM.
Regarding `CC(C)c1cc(C(=O)Nc2ccc3[nH]ncc3c2)c(O)cc1O` [Compound 25a, 2,4-dihydroxy-N-(1H-indazol-5-yl)-5-isopropylbenzamide], the GI50 in experiment [1] (setting [5]) and in experiment [2] was over 10000 nM in each case.
`CC(C)c1cc(C(=O)N(c2cnc3c(cnn3C)c2)C(C)C)c(O)cc1O` [Compound 26f, 2,4-dihydroxy-N, 5-diisopropyl-N-(1-methyl-1H-pyrazolo[3,4-b]pyridin-5-yl)benzamide]: the GI50 in experiment [1] (setting [5]) amounted to 3640 ± 50 nM; in experiment [3] (setting [6]), 6860 ± 480 nM.
Turning to `CC(C)c1cc(C(=O)Nc2cccc3ncccc23)c(O)cc1O` [Compound 29a, 2,4-dihydroxy-5-isopropyl-N-(quinolin-5-yl)benzamide], the GI50 in experiment [1] (setting [5]) and in experiment [2] was over 10000 nM in each case.
With `Cc1cc(NC(=O)c2cc(C(C)C)c(O)cc2O)c2ccccc2n1` [Compound 32a, 2,4-dihydroxy-5-isopropyl-N-(2-methylquinolin-4-yl)benzamide], the GI50 in experiment [1] (setting [5]) and in experiment [2] was over 10000 nM in each case.
On to `CCN(C(=O)c1cc(C(C)C)c(O)cc1O)c1cccnc1C` [Compound 34a, N-ethyl-2,4-dihydroxy-5-isopropyl-N-(2-methylpyridin-3-yl)benzamide], for which the GI50 in experiment [1] (Table 1, SRB, 48 h, read-out: GI50 Lung A549) is over 10000 nM.
As to `CC(C)c1cc(C(=O)Nc2cccc3ccn(C)c23)c(O)cc1O` [Compound 22a, 2,4-dihydroxy-5-isopropyl-N-(1-methyl-1H-indol-7-yl)benzamide], in experiment [1] (setting [4]), the GI50 is over 10000 nM.
The same measure, in the same setting: the same measure for `CCN(C(=O)c1cc(C(C)C)c(O)cc1O)c1ccc2ccn(C)c2c1` [Compound 21d, N-ethyl-2,4-dihydroxy-5-isopropyl-N-(1-methyl-1H-indol-6-yl)benzamide]: 90 ± 10 nM.
As for `CC(C)c1cc(C(=O)N(C)c2ccc3c(c2)CCN3)c(O)cc1O` [Compound 23b, 2,4-dihydroxy-N-(indolin-5-yl)-5-isopropyl-N-methylbenzamide], the results for the concentration for 50% growth inhibition (GI50) in experiment [1] (setting [5]) and in experiment [3] (setting [6]) were 2820 ± 30 nM and 5530 ± 380 nM, respectively.
As to `CC(C)c1cc(C(=O)N(c2ccc3ccn(C)c3c2)C(C)C)c(O)cc1O` [Compound 21f, 2,4-dihydroxy-N,5-diisopropyl-N-(1-methyl-1H-indol-6-yl)benzamide], in experiment [1] (setting [4]), the GI50 was 840 ± 40 nM.
For the compound `CCN(C(=O)c1cc(C(C)C)c(O)cc1O)c1cnc2c(cnn2C)c1` [Compound 26d, N-ethyl-2,4-dihydroxy-5-isopropyl-N-(1-methyl-1H-pyrazolo[3,4-b]pyridin-5-yl)benzamide], the results for the GI50 in experiment [1] (setting [5]) and in experiment [3] (setting [6]) were 380 ± 20 nM and 710 ± 60 nM, respectively.
As to `CC(C)c1cc(C(=O)Nc2ccc3cc[nH]c3c2)c(O)cc1O` [Compound 21a, 2,4-dihydroxy-N-(1H-indol-6-yl)-5-isopropylbenzamide], the GI50 in experiment [1] (setting [4]) stood at 300 ± 30 nM.
Turning to `CC(C)c1cc(C(=O)N(C)c2cnc3c(ccn3C)c2)c(O)cc1O` [Compound 24c, 2,4-dihydroxy-5-isopropyl-N-methyl-N-(1-methyl-1H-pyrrolo[2,3-b]pyridin-5-yl)benzamide], the GI50 came out at 270 ± 30 nM in experiment [1] (setting [5]) and 710 ± 80 nM in experiment [3] (setting [6]).
For the compound `CCN(C(=O)c1cc(C(C)C)c(O)cc1O)c1cnc2ccccc2c1` [Compound 28c, N-ethyl-2,4-dihydroxy-5-isopropyl-N-(quinolin-3-yl)benzamide], the GI50 in experiment [1] (setting [5]) amounted to 280 ± 50 nM.
On to `CCN(C(=O)c1cc(C(C)C)c(O)cc1O)c1cccc2ccn(C)c12` [Compound 22c, N-ethyl-2,4-dihydroxy-5-isopropyl-N-(1-methyl-1H-indol-7-yl)benzamide], for which the GI50 in experiment [1] (setting [4]) was over 10000 nM.
`CC(C)c1cc(C(=O)N(c2cccc3ccn(C)c23)C(C)C)c(O)cc1O` [Compound 22e, 2,4-dihydroxy-N,5-diisopropyl-N-(1-methyl-1H-indol-7-yl)benzamide]: the GI50 in experiment [1] (setting [4]) was over 10000 nM.
As for `CCCN(C(=O)c1cc(C(C)C)c(O)cc1O)c1cnc2c(ccn2C)c1` [Compound 24e, 2,4-dihydroxy-5-isopropyl-N-(1-methyl-1H-pyrrolo[2,3-b]pyridin-5-yl)-N-propylbenzamide], the GI50 in experiment [1] (setting [5]) came to 2100 ± 170 nM; in experiment [3] (setting [6]) it was 3760 ± 230 nM.
On to `CC(C)c1cc(C(=O)N(C)c2ccc3ccn(C)c3c2)c(O)cc1O` [Compound 21c, 2,4-dihydroxy-5-isopropyl-N-methyl-N-(1-methyl-1H-indol-6-yl)benzamide], for which, in experiment [1] (setting [4]), the GI50 amounted to 100 ± 20 nM.
Take `CC(C)c1cc(C(=O)N(c2cnc3c(ccn3C)c2)C(C)C)c(O)cc1O` [Compound 24f, 2,4-dihydroxy-N, 5-diisopropyl-N-(1-methyl-1H-pyrrolo[2,3-b]pyridin-5-yl)benzamide]: the GI50 in experiment [1] (setting [5]) turned out to be 2060 ± 120 nM; in experiment [3] (setting [6]) it was 3140 ± 870 nM.
In the case of `CC(C)c1cc(C(=O)N(C)c2cnc3c(cnn3C)c2)c(O)cc1O` [Compound 26c, 2,4-dihydroxy-5-isopropyl-N-methyl-N-(1-methyl-1H-pyrazolo[3,4-b]pyridin-5-yl)benzamide], the GI50 in experiment [1] (setting [5]) came out at 700 ± 40 nM; in experiment [3] (setting [6]), 1150 ± 220 nM.
For the compound `CCN(C(=O)c1cc(C(C)C)c(O)cc1O)c1cccnc1OCc1ccccc1` [Compound 34b, N-(2-(benzyloxy)pyridin-3-yl)-N-ethyl-2,4-dihydroxy-5-isopropylbenzamide], the GI50 in experiment [1] (setting [5]) worked out at 210 ± 10 nM.
As for `CC(C)c1cc(C(=O)Nc2cnc3c(cnn3C)c2)c(O)cc1O` [Compound 26b, 2,4-dihydroxy-5-isopropyl-N-(1-methyl-1H-pyrazolo[3,4-b]pyridin-5-yl)benzamide], the GI50 in experiment [1] (setting [5]) and in experiment [3] (setting [6]) was over 10000 nM each time.

The term GI50 denotes the concentration giving 50% growth inhibition.

These data come from patent publication US11479528B2, “Heat shock protein 90 inhibitors” (TAIPEI MEDICAL UNIVERSITY, priority 2017, dated 2022).
